Source: ChEMBL document CHEMBL2311454, “Discovery and evaluation of novel inhibitors of mycobacterium protein tyrosine phosphatase B from the 6-Hydroxy-benzofuran-5-carboxylic acid scaffold” (J Med Chem, 2013)
Calls of active or inactive are those of the source. No cut-off for these calls is given here.

Tests used:
[1] = target: T1, Tyrosine-protein phosphatase non-receptor type 1 (Homo sapiens, UniProt P18031); assay: Inhibition of PTP1B (unknown origin) expressed in Escherichia coli using pNPP substrate after 5 mins by spectrophotometric analysis
T1 sequence (P18031 whole entry): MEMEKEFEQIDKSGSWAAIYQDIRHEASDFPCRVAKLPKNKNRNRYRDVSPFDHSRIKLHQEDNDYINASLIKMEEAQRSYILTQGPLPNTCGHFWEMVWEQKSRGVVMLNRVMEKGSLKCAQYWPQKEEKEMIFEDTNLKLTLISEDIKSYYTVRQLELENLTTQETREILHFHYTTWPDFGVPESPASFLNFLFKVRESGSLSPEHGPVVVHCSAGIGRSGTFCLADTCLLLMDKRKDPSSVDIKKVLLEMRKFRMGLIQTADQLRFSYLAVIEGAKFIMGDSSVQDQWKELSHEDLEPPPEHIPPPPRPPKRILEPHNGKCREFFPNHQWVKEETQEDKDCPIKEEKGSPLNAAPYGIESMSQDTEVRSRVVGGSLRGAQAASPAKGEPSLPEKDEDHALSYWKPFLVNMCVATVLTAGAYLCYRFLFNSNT

[2] = target: Tyrosine-protein phosphatase non-receptor type 6 (Homo sapiens, UniProt P29350); assay: Inhibition of SHP1 (unknown origin) expressed in Escherichia coli using pNPP substrate after 5 mins by spectrophotometric analysis
Sequence of Tyrosine-protein phosphatase non-receptor type 6 (P29350 whole entry): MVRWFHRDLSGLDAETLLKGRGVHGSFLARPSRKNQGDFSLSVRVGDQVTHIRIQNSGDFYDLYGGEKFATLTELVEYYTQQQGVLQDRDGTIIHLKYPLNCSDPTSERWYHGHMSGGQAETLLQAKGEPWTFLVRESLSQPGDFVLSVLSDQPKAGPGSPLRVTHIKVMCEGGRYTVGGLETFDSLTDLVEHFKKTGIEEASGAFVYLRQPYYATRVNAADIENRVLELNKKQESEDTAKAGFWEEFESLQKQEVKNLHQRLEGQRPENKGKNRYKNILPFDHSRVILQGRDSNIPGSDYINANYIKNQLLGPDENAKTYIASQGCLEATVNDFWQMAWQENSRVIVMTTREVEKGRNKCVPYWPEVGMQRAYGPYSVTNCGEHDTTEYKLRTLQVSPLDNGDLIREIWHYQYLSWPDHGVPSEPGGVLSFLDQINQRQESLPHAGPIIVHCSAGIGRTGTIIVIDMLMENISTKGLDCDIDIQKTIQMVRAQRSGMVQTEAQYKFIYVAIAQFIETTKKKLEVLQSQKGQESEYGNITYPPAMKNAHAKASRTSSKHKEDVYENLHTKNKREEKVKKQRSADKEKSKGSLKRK

[3] = target: T2, Tyrosine-protein phosphatase non-receptor type 22 (Homo sapiens, UniProt Q9Y2R2); assay: Inhibition of LYP (unknown origin) expressed in Escherichia coli using pNPP substrate after 5 mins by spectrophotometric analysis
T2 sequence (Q9Y2R2 whole entry): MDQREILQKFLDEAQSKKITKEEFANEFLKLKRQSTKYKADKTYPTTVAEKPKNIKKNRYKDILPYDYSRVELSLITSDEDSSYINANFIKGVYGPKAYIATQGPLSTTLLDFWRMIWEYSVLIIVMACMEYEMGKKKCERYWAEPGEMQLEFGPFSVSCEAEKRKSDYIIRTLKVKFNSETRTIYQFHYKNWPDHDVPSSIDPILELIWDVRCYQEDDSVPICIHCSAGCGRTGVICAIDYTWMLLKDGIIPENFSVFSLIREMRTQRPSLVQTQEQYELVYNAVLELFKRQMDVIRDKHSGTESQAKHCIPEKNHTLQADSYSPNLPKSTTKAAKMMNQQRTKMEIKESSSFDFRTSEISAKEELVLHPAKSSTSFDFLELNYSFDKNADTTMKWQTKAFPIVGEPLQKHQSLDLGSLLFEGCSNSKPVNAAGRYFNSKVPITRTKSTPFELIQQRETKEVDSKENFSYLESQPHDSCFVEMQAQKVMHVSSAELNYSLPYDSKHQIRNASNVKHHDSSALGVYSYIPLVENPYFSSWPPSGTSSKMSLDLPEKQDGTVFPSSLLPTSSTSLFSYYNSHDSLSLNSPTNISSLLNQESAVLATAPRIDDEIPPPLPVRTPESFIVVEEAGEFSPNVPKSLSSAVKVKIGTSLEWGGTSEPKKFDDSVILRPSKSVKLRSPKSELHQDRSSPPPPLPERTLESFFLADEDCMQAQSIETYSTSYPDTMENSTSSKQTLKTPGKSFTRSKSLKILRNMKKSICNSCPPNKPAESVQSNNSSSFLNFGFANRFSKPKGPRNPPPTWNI

[4] = target: T3, Tyrosine-protein phosphatase non-receptor type 11 (Homo sapiens, UniProt Q06124); assay: Inhibition of SHP2 (unknown origin) expressed in Escherichia coli using pNPP substrate after 5 mins by spectrophotometric analysis
T3 sequence (Q06124 whole entry): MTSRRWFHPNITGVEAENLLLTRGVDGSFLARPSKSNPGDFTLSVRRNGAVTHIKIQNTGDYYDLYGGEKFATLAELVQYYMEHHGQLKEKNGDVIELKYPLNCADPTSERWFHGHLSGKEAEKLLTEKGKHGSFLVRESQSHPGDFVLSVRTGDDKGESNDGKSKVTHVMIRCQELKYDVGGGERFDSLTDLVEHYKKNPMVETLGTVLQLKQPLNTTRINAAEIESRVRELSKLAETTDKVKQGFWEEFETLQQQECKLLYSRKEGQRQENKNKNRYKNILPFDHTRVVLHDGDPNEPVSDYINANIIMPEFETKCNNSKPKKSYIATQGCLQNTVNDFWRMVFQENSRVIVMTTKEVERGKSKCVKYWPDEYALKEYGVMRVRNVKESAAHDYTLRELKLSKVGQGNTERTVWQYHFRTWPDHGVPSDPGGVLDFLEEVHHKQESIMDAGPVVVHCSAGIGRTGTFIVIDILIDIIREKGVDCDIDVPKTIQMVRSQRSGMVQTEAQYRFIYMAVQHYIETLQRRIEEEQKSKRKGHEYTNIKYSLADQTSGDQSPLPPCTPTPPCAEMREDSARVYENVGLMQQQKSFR

[5] = target: Dual specificity protein phosphatase 3 (Homo sapiens, UniProt P51452); assay: Inhibition of VHR (unknown origin) expressed in Escherichia coli using pNPP substrate after 5 mins by spectrophotometric analysis
Sequence of Dual specificity protein phosphatase 3 (P51452 whole entry): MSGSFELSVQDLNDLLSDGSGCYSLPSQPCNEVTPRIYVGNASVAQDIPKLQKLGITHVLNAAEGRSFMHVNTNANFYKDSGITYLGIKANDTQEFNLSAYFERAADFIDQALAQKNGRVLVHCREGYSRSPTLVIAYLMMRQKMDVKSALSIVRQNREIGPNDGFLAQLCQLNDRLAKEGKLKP

[6] = Inhibition of Mycobacterium tuberculosis PTPB expressed in Escherichia coli using pNPP substrate after 5 mins by spectrophotometric analysis
RAW264.7 [7] = assay: Inhibition of Mycobacterium tuberculosis PTPB expressed in mouse RAW264.7 macrophages assessed as decrease in Akt activity after 1 hr by Western blotting analysis; format: cell-based
RAW264.7 [8] = assay: Inhibition of Mycobacterium tuberculosis PTPB expressed in mouse RAW264.7 macrophages assessed as induction of apoptosis after 1 hr by annexin V-FITC /propidium iodide staining-based flow cytometric analysis; format: cell-based
[9] = system: Mycobacterium tuberculosis; assay: Inhibition of Mycobacterium tuberculosis PTPB expressed in mouse RAW264.7 macrophages assessed as restoration of IFNgamma-induced p38 activation after 1 hr by Western blotting analysis
RAW264.7 [10] = assay: Inhibition of Mycobacterium tuberculosis PTPB expressed in mouse RAW264.7 macrophages assessed as increase in caspase activity after 1 hr by spectrophotometric analysis; format: cell-based
[11] = system: Mycobacterium tuberculosis; assay: Inhibition of Mycobacterium tuberculosis PTPB expressed in mouse RAW264.7 macrophages assessed as restoration of IFNgamma-induced IL-6 production after 1 hr by ELISA
[12] = system: Mycobacterium tuberculosis; assay: Inhibition of Mycobacterium tuberculosis PTPB expressed in mouse RAW264.7 macrophages assessed as restoration of IFNgamma-induced ERK1/2 activation after 1 hr by Western blotting analysis

Row | SMILES | IC50 [1] [µM] | IC50 [2] [µM] | IC50 [3] [µM] | IC50 [4] [µM] | IC50 [5] [µM] | IC50 [6] [µM] | inhibition (RAW264.7 [7]) | inhibition (RAW264.7 [8]) | inhibition [9] | inhibition (RAW264.7 [10]) | inhibition [11] | inhibition [12]
1 | C[C@]12CCC(=O)C=C1CC[C@@H]1[C@@H]2CC[C@@]2(C)[C@H]1CC[C@]2(O)C#Cc1c(-c2ccccc2)oc2cc(O)c(C(=O)O)cc12 | > 50 | > 100 | 12.2 | 30 | > 100 | 5.09 | – | – | – | – | – | –
2 | O=C(O)c1cc2c(/C=C\c3cc(F)cc(F)c3)c(-c3ccccc3)oc2cc1O | 8 | – | 3.7 | 5 | 8.6 | 1.2 | – | – | – | – | – | –
3 | C#Cc1c(-c2ccccc2)oc2cc(O)c(C(=O)O)cc12 | > 50 | > 50 | 50 | 31 | > 50 | – | – | – | – | – | – | –
4 | O=C(O)c1cc2c(CCc3ccc(Oc4ccccc4)cc3)c(-c3ccccc3)oc2cc1O | 8 | 3.7 | 2.2 | 3.6 | 6.3 | – | – | – | – | – | – | –
5 | O=C(O)c1cc2c(CCc3cccc(F)c3)c(-c3ccccc3)oc2cc1O | 60 | 11.5 | 12.4 | 10.9 | 22 | – | – | – | – | – | – | –
6 | O=C(O)c1cc2c(CCc3ccc(OC(F)(F)F)cc3)c(-c3ccccc3)oc2cc1O | 8.4 | 7.1 | 4.1 | – | 6.7 | 3.4 | inactive | inactive | inactive | inactive | inactive | inactive
7 | O=C(O)c1cc2c(CCc3cccc(C(F)(F)F)c3)c(-c3ccccc3)oc2cc1O | 7.4 | – | 3.5 | 4.5 | 6.2 | – | – | – | – | – | – | –
8 | O=C(O)c1cc2c(C#CCO)c(-c3ccccc3)oc2cc1O | > 100 | > 100 | > 100 | > 100 | > 100 | 22 | – | – | – | – | – | –
